biological target: T1, human protease activated receptor 1 (PAR-1) (Homo sapiens, UniProt P25116); test: Cellular functional in vitro test (aequorin luminescence, PAR-1 antagonism); assay type: cell-based; conditions: recombinant HEK293 aequorin cell line, endogenous human PAR-1; PAR-1 agonist at EC50; calcium luminescence
T1 construct: the cell stably expresses the endogenous human PAR-1 receptor and the endogenous purinergic receptor P2Y2; endogenous in cells; host or cells: HEK293-derived recombinant cell line; only the mitochondrial aequorin is recombinant
T1 sequence (P25116 22-425): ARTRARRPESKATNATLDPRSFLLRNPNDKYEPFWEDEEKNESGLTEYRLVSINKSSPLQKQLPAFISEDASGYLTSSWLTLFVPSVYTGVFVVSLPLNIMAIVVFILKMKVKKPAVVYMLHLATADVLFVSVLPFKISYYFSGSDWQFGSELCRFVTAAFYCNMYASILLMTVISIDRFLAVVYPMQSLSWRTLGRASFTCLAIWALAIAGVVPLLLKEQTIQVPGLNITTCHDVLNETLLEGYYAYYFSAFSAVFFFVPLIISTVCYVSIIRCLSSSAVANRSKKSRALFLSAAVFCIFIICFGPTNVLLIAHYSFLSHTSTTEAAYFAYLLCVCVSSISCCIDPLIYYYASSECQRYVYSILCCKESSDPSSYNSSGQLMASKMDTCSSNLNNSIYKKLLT
From the text: A recombinant cell line is used to identify antagonists of the human protease activated receptor 1 (PAR-1) and to quantify the activity of the substances described herein. The cell is originally derived from a human embryonal kidney cell (HEK293; ATCC: American Type Culture Collection, Manassas, Va. 20108, USA). The test cell line constitutively expresses a modified form of the calcium-sensitive photoprotein aequorin which, after reconstitution with the cofactor coelenterazine, emits light when the free calcium concentration in the inner mitochondrial compartment is increased (Rizzuto R, Simpson A W, Brini M, Pozzan T.; Nature 1992, 358, 325-327). Additionally, the cell stably expresses the endogenous human PAR-1 receptor and the endogenous purinergic receptor P2Y2. The resulting PAR-1 test cell responds to stimulation of the endogenous PAR-1 or P2Y2 receptor with an intracellular release of calcium ions, which can be quantified through the resulting aequorin luminescence with a suitable luminometer (Milligan G, Marshall F, Rees S, Trends in Pharmacological Sciences 1996, 17, 235-237). […]
Test procedure: The cells are plated out two days (48 h) before the test in culture medium (DMEM F12, supplemented with 10% FCS, 2 mM glutamine, 20 mM HEPES, 1.4 mM pyruvate, 0.1 mg/ml gentamycin, 0.15% Na bicarbonate; BioWhittaker Cat. #BE04-687Q; B-4800 Verviers, Belgium) in 384-well microtitre plates and kept in a cell incubator (96% atmospheric humidity, 5% v/v CO2, 37° C.). […] The test substances are then pipetted onto the microtitre plate, and 5 minutes after the transfer of the test substances into the wells of the microtitre plate the plate is transferred into the luminometer, a PAR-1 agonist concentration which corresponds to EC50 is added and the resulting light signal is immediately measured in the luminometer. To distinguish an antagonist substance action from a toxic action, the endogenous purinergic receptor is immediately subsequently activated with agonist (ATP, final concentration 10 μM) and the resulting light signal is measured.

Point of comparison: `CCOCCc1noc(C2CC(c3ccc(CC)cc3)CN(C(=O)N3CCC(O)CC3)C2)n1` (single isomer, unassigned) [Example 15, {3-[3-(2-Ethoxyethyl)-1,2,4-oxadiazol-5-yl]-5-(4-ethylphenyl)piperidin-1-yl}(4-hydroxypiperidin-1-yl)methanone], IC50 0.0086 µM. Against it:
- O=C(N1CC(O)C1)N1CC(c2ccc(OC(F)(F)F)cc2)CC(c2nc(C3CC3)no2)C1 (single isomer, unassigned) [Example 7, {3-(3-Cyclopropyl-1,2,4-oxadiazol-5-yl)-5-[4-(trifluoromethoxy)phenyl]piperidin-1-yl}(3-hydroxyazetidin-1-yl)methanone] — 4-fold higher, 0.034 µM
- COCCc1noc(C2CC(c3ccc(OC(F)(F)F)cc3)CN(C(=O)N3CC(O)C3)C2)n1 (single isomer, unassigned) [Example 9, (3-Hydroxyazetidin-1-yl){3-[3-(2-methoxyethyl)-1,2,4-oxadiazol-5-yl]-5-[4-(trifluoromethoxy)-phenyl]piperidin-1-yl}methanone] — 3.3-fold higher, 0.028 µM

— patent US20120129831A1, “Substituted 3-(1,2,4-Oxadiazol-5-yl)-5-Phenylpiperidines” (BAYER PHARMA AKTIENGESELLSCHAFT, priority 2009, published 2012)
